Where a name gives a salt, the structure may show the parent alone. Read-outs that look alike come from different tables or passages of the source.
Key:
[1] = system: reconstructed human corneal epithelium model (SkinEthic™ HCE)
From the text: (§1) The reconstructed human corneal epithelium model, (SkinEthic™ HCE) was purchased from Episkin in Lyon. The model consists of immortalized human corneal epithelial cells grown in a defined medium at the air-liquid interface. The tissue structure obtained is a multi-layer epithelium similar to the natural tissue structure of the human cornea, comprising 5-7 layers with a surface area of 0.5 cm^2.
(§2) Polyhedral cells and wing cells are also present. The tissue also comprises specific ultrastructures such as intermediate filaments, mature hemidesmosomes and desmosomes. […] The tissues are shipped on a semi-solid layer of agarose culture medium. Upon receipt, the tissues are transferred to maintenance medium (1 ml/well) in 6-well plates and incubated in a climatic chamber at 37° C., 5% CO2. The tissues are used 24 hours later.
The procedure for applying solid (powdered) products to the tissues was optimized as follows. First, the products are reduced to the finest possible powder with a mortar. The chemicals are tested at a single dose. In summary, the tissue surface is moistened by adding 20 μl of PBS at 37° C. and incubation for 10 min at 37° C./5% CO2. The corneal epithelia are then treated topically with 30±2 mg (representing 60 mg/cm2) and incubated for 30 min at room temperature. The tissues are then washed with sterile PBS (2×25 ml) at 37° C. PBS is applied to the edge of the insert (not directly on the tissue) to create a gentle vortex that removes the chemical. The tissues on their inserts are then “embedded” in 5 ml of maintenance medium at room temperature for 30 minutes in order to remove as much as possible of the product remaining on the tissue surface. The medium is then removed by gently tapping the insert on absorbent paper, and 50 μl of maintenance medium at 37° C. is added. The inserts are then incubated for 6 h at 37° C./5% CO2.
(§3) In summary, corneal tissues are recovered with forceps and placed in tubes for rapid freezing in liquid nitrogen. The RNA is then extracted by the QIAzol technique (Qiagen, Courtaboeuf, France) with an “RNeasy Mini Kit” according to the manufacturer's instructions. In summary, the tissues are placed in 1 ml of QIAzol and homogenized using the TissueLyser II (Qiagen, Courtaboeuf, France) with 2 steel beads. After centrifugation, the supernatant is collected and 0.2 ml of bromochloro propane (Sigma, France) is added, then the whole is vigorously mixed. The homogenate is centrifuged at 12,000 g for 15 min at 4° C. The upper phase (aqueous phase) is added to 600 μl of 70% ethanol and immediately mixed by pipetting. The mixture is transferred to an RNeasy spin column placed on a 2 ml collection tube and the RNA is collected according to the manufacturer's instructions (Qiagen, Courtaboeuf, France).
(§4) In summary, the transcription of total RNA is performed with 1 μg of total RNA in a final volume of 20 μl using “Random Primers” (Invitrogen, France) and “SuperScript III Reverse Transcriptase” (Invitrogen, France) according to the manufacturer's instructions. Quantitative RT-PCR uses a PCR reagent mix: SYBR Green Real-Time PCR Master Mix (ROCHE, France) with 0.4 μM of each nucleotide primer in a final volume of 25 μl. The reaction is performed in an LC480 System (ROCHE, France). The amplification program comprises a cycle at 95° C. for 1 min, followed by 40 cycles with denaturation at 95° C. for 15 s, a hybridization and amplification phase at 60° C. for 15 s, followed by a final elongation phase at 72° C. for 40 s.
The relative amount of each transcript is normalized to the average amount of expression of 5 so-called housekeeping genes (Glucuronidase β-GUSB, vacuolar ATPase-ATP6V0E1, H2A Histone Family, Member Y-H2AFY, Glucose-6-Phosphate Dehydrogenase-G6PD and “non-POU domain-containing, octamer-binding”-NONO).
The gene expression rate is measured by an absolute quantification analysis method using an algorithm based on the maximum of the second derivative developed by Roche.

[2] = system: eye; conditions: cited from earlier work; for UN GHS: Table 1, list of liquid products studied
[3] = system: reconstructed human corneal epithelium model (SkinEthic™ HCE); conditions: liquid products; category from LII at 100% and 30%
From the text: as §1, §2
Liquid products are tested for solubility in phosphate-buffered saline (PBS) or olive oil. In summary, 100 μl of the test product is mixed with 200 μl of PBS or olive oil.
The sample is mixed on a vortex mixer. Turbidity and possible phase separation are assessed by eye. The products are tested pure or diluted to 30%. Products that are not soluble in PBS or olive oil cannot be tested at 30%.
The procedure for applying liquid products to the tissues was optimized as follows: the chemicals are tested at two concentrations, 100% and 30%. In summary, the tissue surface is moistened by adding 20 μl of PBS at 37° C. and incubation for 10 min at 37° C./5% CO2. The corneal epithelia are then treated topically with 50±2 μL of the test product (corresponding to 100 μL/cm2) and incubated for 10 min at room temperature. The tissues are then washed with sterile PBS (2×25 ml) at 37° C. PBS is applied to the edge of the insert (not directly on the tissue) to create a gentle vortex that removes the chemical. The tissues on their inserts are then “embedded” in 5 ml of maintenance medium at room temperature for 30 min in order to remove as much as possible of the product remaining on the tissue surface. The medium is then removed by gently tapping the insert on absorbent paper, and 50 μl of maintenance medium at 37° C. is added. The inserts are then incubated for 6 h at 37° C./5% CO2.
as §3, §4

[4] = classification from the Solid Irritation Index
[5] = solid product applied pure in powder form, 30±2 mg, first of three index values
[6] = solid product applied pure in powder form, 30±2 mg, second of three index values
[7] = solid product applied pure in powder form, 30±2 mg, third of three index values
[8] = Table 6, list of solid chemicals studied
[9] = control chemicals and chemicals of FIG. 1 and FIG. 2
[10] = Table 3, results obtained by the Draize test, liquid products

## CC(C)(O)CCC(C)(C)O
[1]; [4]
  EIT prediction: Cat 1
[1]; [5]
  Irritation INDEX: 22
[1]; [6]
  Irritation INDEX: 23
[1]; [7]
  Irritation INDEX: 21
[2]; Draize test classification
  UN-GHS: Cat 1
[2]; [8]
  GHS Class: Cat 1
[2]; [9]
  eye irritation category as stated in text and figure legends: category 1

## O=C(Nc1ccc(Cl)cc1)Nc1ccc(Cl)c(Cl)c1 [1-(4-Chlorophenyl)-3-(3,4-dichlorophenyl) urea]
[1]; [4]
  EIT prediction: No Cat
[1]; [5]
  Irritation INDEX: 0
[1]; [6]
  Irritation INDEX: 0
[1]; [7]
  Irritation INDEX: 1
[2]; Draize test classification
  UN-GHS: No Cat
[2]; [8]
  GHS Class: No cat

## Cc1cc(C)nc(Nc2ccccc2)n1 [2-Anilino-4,6-dimethylpyrimidine]
[1]
  EIT prediction: No Cat
[1]; human, 30 min, 60 mg/cm2
  Irritation INDEX: 0
[2]; rabbit, in vivo
  GHS Class: No cat
  UN-GHS: No Cat
  eye irritation category as stated in text and figure legends: No category

## CC(C)(C)c1cc(Cc2cc(C(C)(C)C)c(O)c(C(C)(C)C)c2)cc(C(C)(C)C)c1O [4,4′-Methylene bis-(2,6-di-tert-butylphenol)]
[1]
  EIT prediction: No Cat
[2]; Draize test classification
  UN-GHS: No Cat
[2]; [8]
  GHS Class: No cat
[2]; [9]
  eye irritation category as stated in text and figure legends: No category

## CCOc1ccc(Br)cc1 [4-Bromophenetol]
[1]; [4]
  EIT prediction: No Cat
[1]; [5]
  Irritation INDEX: 2
[1]; [6]
  Irritation INDEX: 2
[1]; [7]
  Irritation INDEX: 3
[2]; Draize test classification
  UN-GHS: No Cat
[2]; [8]
  GHS Class: No cat
[2]; [9]
  eye irritation category as stated in text and figure legends: No category

## CC(C)(C)CC(C)(C)c1cc(Cc2cc(C(C)(C)CC(C)(C)C)cc(-n3nc4ccccc4n3)c2O)c(O)c(-n2nc3ccccc3n2)c1 [Methylene bis-benzotriazolyl tetramethylbutyl phenol]
[1]
  EIT prediction: No Cat
[2]; Draize test classification
  UN-GHS: No Cat

## F[B-](F)(F)F.[K+] [Potassium tetrafluoroborate]
[1]; [4]
  EIT prediction: No Cat
[1]; [5]
  Irritation INDEX: 4
[1]; [6]
  Irritation INDEX: 6
[1]; [7]
  Irritation INDEX: 2
[2]; Draize test classification
  UN-GHS: No Cat
[2]; [8]
  GHS Class: No cat
[2]; [9]
  eye irritation category as stated in text and figure legends: No category

## CC(CN1c2ccccc2Sc2ccccc21)N(C)C (stereo not drawn) [Promethazine hydrochloride]
[1]; human, 30 min, 60 mg/cm2
  EIT prediction: Cat 1
[2]; Draize test classification
  UN-GHS: Cat 1
[2]; [8]
  GHS Class: Cat 1
[2]; [9]
  eye irritation category as stated in text and figure legends: category 1

## O=C([O-])C(=O)[O-].[Na+].[Na+] [Sodium oxalate]
[1]
  EIT prediction: Cat 1
[2]; Draize test classification
  UN-GHS: Cat 1
[2]; [8]
  GHS Class: Cat 1
[2]; [9]
  eye irritation category as stated in text and figure legends: category 1

## CCCCCCCCCCCCCCOC(=O)CCCCCCCCCCCCC [Tetradecyl tetradecanoate]
[1]
  EIT prediction: No Cat
[2]; [9]
  eye irritation category as stated in text and figure legends: No category

## CC(C)(O)C(=O)O [alpha-Hydroxyisobutyric acid]
[1]; human, 30 min, 60 mg/cm2
  EIT prediction: Cat 1
[2]; [9]
  eye irritation category as stated in text and figure legends: category 1

## Triton X100 [Triton X100 1%]
[3]
  EIT prediction: No Cat
[2]; [10]
  UN-GHS: No Cat

## Triton X100 [Triton X100 5%]
[3]
  EIT prediction: Cat 2
[2]; [10]
  UN-GHS: Cat 2A

## Triton X100 [Triton X100 10%]
[3]
  EIT prediction: Cat 1
[2]
  UN GHS: Cat 1
[2]; [10]
  UN-GHS: Cat 1

## Triton X-100 [Triton X-100 10%]
[3]
  EIT prediction: Cat 1
[2]
  UN GHS: Cat 1
[2]; [10]
  UN-GHS: Cat 1

Reference: patent US12410472B2, “Method for evaluating the eye irritation potential of chemicals” (IMMUNOSEARCH, priority 2016, dated 2025)
